Laboratory results: PMC4020744, “Modification, Biological Evaluation and 3D QSAR Studies of Novel 2-(1,3-Diaryl- 4,5-Dihydro-1H-Pyrazol-5-yl)Phenol Derivatives as Inhibitors of B-Raf Kinase” (PLoS ONE, 2014)

How the values were obtained:
[1] = system: WM266.4 human melanoma cell line; test: Anti-proliferation assay (MTT); type: cell-based; settings: WM 266-4, WM266.4 human melanoma cell growth, 24 h
Experimental: WM266.4 melanoma cells were cultured in DMEM/10% fetal bovine serum, in 5% CO2 water saturated atmosphere at 37°C. Cell suspensions (10000/mL) were prepared and 100 µL/well dispensed into 96-well plates (Costar) giving 1000 cells/well. The plates were returned to the incubator for 24h to allow the cells to reattach. These compounds were initially prepared at 20mM in DMSO. Aliquots (200 µL) were diluted into 20mL culture medium giving 200 µM, and 10 serial dilutions of 3x prepared. Aliquots (100 µL) of each dilution were added to the wells, giving doses ranging from 100 µM to 0.005 µM. After a further incubated at 37°C for 24h in a humidified atmosphere with 5% CO2, the cell viability was assessed by the conventional 3-(4,5-dimethylthiazol-2-yl)-2,5-diphenyltetrazolium bromide (MTT) reduction assay and carried out strictly according to the manufacturer instructions (Sigma). The absorbance at 590nm was recorded using LX300 Epson Diagnostic micro-plate reader. Then GI50 was calculated using SPSS 13.0 software.

B-Raf^V600E = test: V600E mutant B-Raf kinase inhibitory assay (B-Raf^V600E mediated MEK phosphorylation)
B-Raf^V600E, sequence (P28028 whole entry V585E): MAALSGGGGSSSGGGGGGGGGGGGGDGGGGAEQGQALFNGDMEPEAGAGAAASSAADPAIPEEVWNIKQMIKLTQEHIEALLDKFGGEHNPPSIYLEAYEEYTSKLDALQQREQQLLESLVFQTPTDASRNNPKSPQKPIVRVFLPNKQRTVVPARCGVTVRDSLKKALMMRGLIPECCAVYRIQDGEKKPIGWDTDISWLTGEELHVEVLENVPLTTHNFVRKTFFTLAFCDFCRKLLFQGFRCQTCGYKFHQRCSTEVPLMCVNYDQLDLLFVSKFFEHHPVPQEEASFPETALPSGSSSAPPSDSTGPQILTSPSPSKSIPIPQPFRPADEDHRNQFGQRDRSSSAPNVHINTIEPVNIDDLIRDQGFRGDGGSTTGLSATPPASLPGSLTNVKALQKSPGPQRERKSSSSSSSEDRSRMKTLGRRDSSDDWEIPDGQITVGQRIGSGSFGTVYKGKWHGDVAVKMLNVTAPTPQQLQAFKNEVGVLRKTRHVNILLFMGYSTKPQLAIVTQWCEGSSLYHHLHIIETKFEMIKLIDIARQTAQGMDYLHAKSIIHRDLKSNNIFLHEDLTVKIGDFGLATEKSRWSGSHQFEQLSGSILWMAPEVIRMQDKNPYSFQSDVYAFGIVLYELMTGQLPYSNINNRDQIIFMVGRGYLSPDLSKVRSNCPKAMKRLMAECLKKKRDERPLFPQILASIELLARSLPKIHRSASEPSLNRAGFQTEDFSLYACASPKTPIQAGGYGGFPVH
Experimental: Briefly, 7.5 ng Mouse Full-Length GST-tagged BRAF^V600E (Invitrogen, PV3849) was preincubated at room temperature for 1 h with 1 µL drug and 4 µL assay dilution buffer. The kinase assay was initiated when 5 µL of a solution containing 200 ng recombinant human full length, N-terminal His-tagged MEK1 (Invitrogen), 200 µM ATP, and 30 mM MgCl2 in assay dilution buffer was added. The kinase reaction was allowed to continue at room temperature for 25 min and was then quenched with 5 µL 5x protein denaturing buffer (LDS) solution. Protein was further denatured by heating for 5 min at 70°C. 10 µL of each reaction was loaded into a 15-well, 4–12% precast NuPage gel (Invitrogen) and run at 200 V, and upon completion, the front, which contained excess hot ATP, was cut from the gel and discarded. The gel was then dried and developed onto a phosphor screen.

| Compound | GI50 [1] [nM] | melting point [°C] | IC50 (B-Raf^V600E) [nM] |
| --- | --- | --- | --- |
| Oc1ccccc1C1CC(c2ccc(F)cc2)=NN1c1ccccc1 (centres unmarked) [Compound C1, 2-(3-(4-fluorophenyl)-1-phenyl-4,5-dihydro-1H-pyrazol-5-yl)phenol] | > 50000 | 38 to 41 | 71900 ± 6770 |
| Oc1ccccc1C1CC(c2ccc(Cl)cc2)=NN1c1ccccc1 (centres unmarked) [Compound C2, 2-(3-(4-chlorophenyl)-1-phenyl-4,5-dihydro-1H-pyrazol-5-yl)phenol] | 2010 ± 130 | 54 to 56 | 500 ± 40 |
| Oc1ccccc1C1CC(c2ccc(Br)cc2)=NN1c1ccccc1 (centres unmarked) [Compound C3, 2-(3-(4-bromophenyl)-1-phenyl-4,5-dihydro-1H-pyrazol-5-yl)phenol] | 2090 ± 180 | 65 to 68 | 630 ± 60 |
| Cc1ccc(C2=NN(c3ccccc3)C(c3ccccc3O)C2)cc1 (centres unmarked) [Compound C4, 2-(1-phenyl-3-(p-tolyl)-4,5-dihydro-1H-pyrazol-5-yl)phenol] | 2850 ± 230 | 32 to 34 | 1490 ± 110 |
| COc1ccc(C2=NN(c3ccccc3)C(c3ccccc3O)C2)cc1 (centres unmarked) [Compound C5, 2-(3-(4-methoxyphenyl)-1-phenyl-4,5-dihydro-1H-pyrazol-5-yl)phenol] | 1980 ± 170 | 35 to 37 | 510 ± 50 |
| Oc1ccccc1C1CC(c2ccc(Cl)c(Cl)c2)=NN1c1ccccc1 (centres unmarked) [Compound C6, 2-(3-(3,4-dichlorophenyl)-1-phenyl-4,5-dihydro-1H-pyrazol-5-yl)phenol] | 1750 ± 120 | 57 to 59 | 150 ± 10 |
| Oc1ccc(Cl)cc1C1CC(c2ccc(F)cc2)=NN1c1ccccc1 (centres unmarked) [Compound C7, 4-chloro-2-(3-(4-fluorophenyl)-1-phenyl-4,5-dihydro-1H-pyrazol-5-yl)phenol] | 4260 ± 360 | 60 to 63 | 2600 ± 230 |
| Oc1ccc(Cl)cc1C1CC(c2ccc(Cl)cc2)=NN1c1ccccc1 (centres unmarked) [Compound C8, 4-chloro-2-(3-(4-chlorophenyl)-1-phenyl-4,5-dihydro-1H-pyrazol-5-yl)phenol] | 4390 ± 310 | 68 to 71 | 2660 ± 190 |
| Oc1ccc(Cl)cc1C1CC(c2ccc(Br)cc2)=NN1c1ccccc1 (centres unmarked) [Compound C9, 2-(3-(4-bromophenyl)-1-phenyl-4,5-dihydro-1H-pyrazol-5-yl)-4-chlorophenol] | 2730 ± 210 | 90 to 93 | 1370 ± 130 |
| Cc1ccc(C2=NN(c3ccccc3)C(c3cc(Cl)ccc3O)C2)cc1 (centres unmarked) [Compound C10, 4-chloro-2-(1-phenyl-3-(p-tolyl)-4,5-dihydro-1H-pyrazol-5-yl)phenol] | 5370 ± 490 | 43 to 46 | 3240 ± 280 |
| COc1ccc(C2=NN(c3ccccc3)C(c3cc(Cl)ccc3O)C2)cc1 (centres unmarked) [Compound C11, 4-chloro-2-(3-(4-methoxyphenyl)-1-phenyl-4,5-dihydro-1H-pyrazol-5-yl)phenol] | 2430 ± 160 | 49 to 51 | 1070 ± 80 |
| Oc1ccc(Cl)cc1C1CC(c2ccc(Cl)c(Cl)c2)=NN1c1ccccc1 (centres unmarked) [Compound C12, 4-chloro-2-(3-(3,4-dichlorophenyl)-1-phenyl-4,5-dihydro-1H-pyrazol-5-yl)phenol] | 1990 ± 130 | 77 to 79 | 500 ± 50 |
| Oc1ccc(Br)cc1C1CC(c2ccc(F)cc2)=NN1c1ccccc1 (centres unmarked) [Compound C13, 4-bromo-2-(3-(4-fluorophenyl)-1-phenyl-4,5-dihydro-1H-pyrazol-5-yl)phenol] | 4450 ± 410 | 73 to 76 | 2730 ± 190 |
| Oc1ccc(Br)cc1C1CC(c2ccc(Cl)cc2)=NN1c1ccccc1 (centres unmarked) [Compound C14, 4-bromo-2-(3-(4-chlorophenyl)-1-phenyl-4,5-dihydro-1H-pyrazol-5-yl)phenol] | 3690 ± 320 | 88 to 91 | 2200 ± 200 |
| Oc1ccc(Br)cc1C1CC(c2ccc(Br)cc2)=NN1c1ccccc1 (centres unmarked) [Compound C15, 4-bromo-2-(3-(4-bromophenyl)-1-phenyl-4,5-dihydro-1H-pyrazol-5-yl)phenol] | 2650 ± 190 | 104 to 106 | 1290 ± 100 |
| Cc1ccc(C2=NN(c3ccccc3)C(c3cc(Br)ccc3O)C2)cc1 (centres unmarked) [Compound C16, 4-bromo-2-(1-phenyl-3-(p-tolyl)-4,5-dihydro-1H-pyrazol-5-yl)phenol] | 4550 ± 440 | 59 to 63 | 2780 ± 210 |
| COc1ccc(C2=NN(c3ccccc3)C(c3cc(Br)ccc3O)C2)cc1 (centres unmarked) [Compound C17, 4-bromo-2-(3-(4-methoxyphenyl)-1-phenyl-4,5-dihydro-1H-pyrazol-5-yl)phenol] | 2030 ± 180 | 65 to 67 | 570 ± 50 |
| Oc1ccc(Br)cc1C1CC(c2ccc(Cl)c(Cl)c2)=NN1c1ccccc1 (centres unmarked) [Compound C18, 4-bromo-2-(3-(3,4-dichlorophenyl)-1-phenyl-4,5-dihydro-1H-pyrazol-5-yl)phenol] | 1880 ± 150 | 95 to 98 | 340 ± 20 |

Continued, values first:

| GI50 [1] [nM] | melting point [°C] | IC50 (B-Raf^V600E) [nM] | Compound |
| --- | --- | --- | --- |
| 3760 ± 320 | 37 to 39 | 2260 ± 190 | Oc1c(Cl)cc(Cl)cc1C1CC(c2ccc(F)cc2)=NN1c1ccccc1 (centres unmarked) [Compound C19, 2,4-dichloro-6-(3-(4-fluorophenyl)-1-phenyl-4,5-dihydro-1H-pyrazol-5-yl)phenol] |
| 3590 ± 280 | 42 to 43 | 2140 ± 190 | Oc1c(Cl)cc(Cl)cc1C1CC(c2ccc(Cl)cc2)=NN1c1ccccc1 (centres unmarked) [Compound C20, 2,4-dichloro-6-(3-(4-chlorophenyl)-1-phenyl-4,5-dihydro-1H-pyrazol-5-yl)phenol] |
| 5130 ± 490 | 56 to 59 | 3120 ± 260 | Oc1c(Cl)cc(Cl)cc1C1CC(c2ccc(Br)cc2)=NN1c1ccccc1 (centres unmarked) [Compound C21, 2-(3-(4-bromophenyl)-1-phenyl-4,5-dihydro-1H-pyrazol-5-yl)-4,6-dichlorophenol] |
| 23900 ± 1990 | 29 to 31 | 7370 ± 650 | Cc1ccc(C2=NN(c3ccccc3)C(c3cc(Cl)cc(Cl)c3O)C2)cc1 (centres unmarked) [Compound C22, 2,4-dichloro-6-(1-phenyl-3-(p-tolyl)-4,5-dihydro-1H-pyrazol-5-yl)phenol] |
| 2380 ± 230 | 33 to 34 | 1010 ± 80 | COc1ccc(C2=NN(c3ccccc3)C(c3cc(Cl)cc(Cl)c3O)C2)cc1 (centres unmarked) [Compound C23, 2,4-dichloro-6-(3-(4-methoxyphenyl)-1-phenyl-4,5-dihydro-1H-pyrazol-5-yl)phenol] |
| 2340 ± 170 | 63 to 65 | 970 ± 90 | Oc1c(Cl)cc(Cl)cc1C1CC(c2ccc(Cl)c(Cl)c2)=NN1c1ccccc1 (centres unmarked) [Compound C24, 2,4-dichloro-6-(3-(3,4-dichlorophenyl)-1-phenyl-4,5-dihydro-1H-pyrazol-5-yl)phenol] |
| 8120 ± 750 |  |  | C#Cc1cccc(Nc2ncnc3cc(OCCOC)c(OCCOC)cc23)c1 [Erlotinib, reference compound] |
| 210 ± 20 |  |  | CCCS(=O)(=O)Nc1ccc(F)c(C(=O)c2c[nH]c3ncc(-c4ccc(Cl)cc4)cc23)c1F [Vemurafenib, reference compound] |
